Source: ChEMBL document CHEMBL1201862, “PubChem BioAssay data set” (2004)
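1) Cells in 96-well plates. 2) Compound, 48 h, 5 concentrations. 3) Linear interpolation between surrounding doses. 4) Unreached endpoint = highest concentration. Here, GI50 denotes the concentration required for 50% inhibition of growth.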 Calls of active or inactive are those of the source. Rule as the data show it: active = GI50 up to about 1.1 µM and inactive = higher.

Legend:
Assay in all cases: NCI-60 cell line screen, 48 h
[1] = tested on: HCT-15
[2] = tested on: NCI-H522
[3] = tested on: HCT-116
[4] = tested on: HOP-62
[5] = tested on: UO-31
[6] = tested on: A549
[7] = tested on: SF-268
[8] = tested on: NCI-H460
[9] = tested on: OVCAR-8
[10] = tested on: SN12C
[11] = tested on: SNB-19
[12] = tested on: SK-OV-3
[13] = tested on: SK-MEL-5
[14] = tested on: SNB-75
[15] = tested on: KM12
[16] = tested on: IGROV-1
[17] = tested on: EKVX
[18] = tested on: K562
[19] = tested on: MOLT-4
[20] = tested on: HL-60

Row | SMILES | GI50 [1] | GI50 [2] | GI50 [3] | GI50 [4] | GI50 [5] | GI50 [6] | GI50 [7] | GI50 [8] | GI50 [9] | GI50 [10] | GI50 [11] | GI50 [12] | GI50 [13] | GI50 [14] | GI50 [15] | GI50 [16] | GI50 [17] | GI50 [18] | GI50 [19] | GI50 [20]
1 | O=Cc1cccc2ccc3ccccc3c12 | 11.1 µM | 13.8 µM (inactive) | 9.18 µM (inactive) | 15.9 µM (inactive) | 24 µM (inactive) | 24.3 µM (inactive) | 11.5 µM (inactive) | 21.4 µM (inactive) | 24.2 µM (inactive) | 20.5 µM (inactive) | 7.8 µM (inactive) | 16.5 µM (inactive) | 16.9 µM (inactive) | 7.35 µM (inactive) | 4.02 µM (inactive) |  |  |  |  | 
2 | C=CCOCC1C2CCC3(OCCO3)C21 (configuration not stated) | > 100 µM | > 100 µM (inactive) | > 100 µM (inactive) | > 100 µM (inactive) | 19.1 µM (inactive) | > 100 µM (inactive) | > 100 µM (inactive) | > 100 µM (inactive) | > 100 µM (inactive) | > 100 µM (inactive) | > 100 µM (inactive) | > 100 µM (inactive) | > 100 µM (inactive) | > 100 µM (inactive) | > 100 µM (inactive) | > 100 µM (inactive) | > 100 µM (inactive) | 46.9 µM (inactive) | > 100 µM (inactive) | 
3 | Cc1ccc(S(=O)(=O)NCCSCCNS(=O)(=O)c2ccc(C)cc2)cc1 | > 100 µM | > 100 µM (inactive) | > 100 µM (inactive) |  | > 100 µM (inactive) | > 100 µM (inactive) | > 100 µM (inactive) | > 100 µM (inactive) | > 100 µM (inactive) | > 100 µM (inactive) | > 100 µM (inactive) | > 100 µM (inactive) | > 100 µM (inactive) | > 100 µM (inactive) | > 100 µM (inactive) |  |  | > 100 µM (inactive) | > 100 µM (inactive) | 
4 | COc1cc(OC)c2nc(C)c3c(c2c1)OCC3 | > 100 µM | 72.9 µM (inactive) | 80.7 µM (inactive) | 37.7 µM (inactive) | > 100 µM (inactive) | > 100 µM (inactive) | 47.2 µM (inactive) | > 100 µM (inactive) | > 100 µM (inactive) | 89.3 µM (inactive) | 47.3 µM (inactive) |  | > 100 µM (inactive) | 61.2 µM (inactive) | > 100 µM (inactive) | > 100 µM (inactive) | 75.2 µM (inactive) | > 100 µM (inactive) | > 100 µM (inactive) | > 100 µM (inactive)
5 | O=CC1C(Cl)=Nc2nc3ccccc3n2C1c1ccc([N+](=O)[O-])cc1 (configuration not stated) | 2.93 µM | 3.71 µM (inactive) | 3.73 µM (inactive) | 8.28 µM (inactive) | 3.88 µM (inactive) | 25.2 µM (inactive) | 6.84 µM (inactive) | 31.1 µM (inactive) | 3.95 µM (inactive) | 15.4 µM (inactive) | 16 µM (inactive) |  | 6.68 µM (inactive) | 1.77 µM (inactive) | 24.8 µM (inactive) | 12.3 µM (inactive) | 24.1 µM (inactive) | 1.8 µM (inactive) | 1.71 µM (inactive) | 3.28 µM (inactive)
6 | COc1ccc2cc(/C=N\NC(=O)Nc3cccc4ccccc34)ccc2c1 | 67.5 µM | 80 µM (inactive) | 16.6 µM (inactive) | 15.3 µM (inactive) | 87.3 µM (inactive) | > 100 µM (inactive) | 52.6 µM (inactive) | 17.9 µM (inactive) | 24 µM (inactive) | 36.6 µM (inactive) | 22 µM (inactive) |  | 37.3 µM (inactive) | 11.1 µM (inactive) | 67 µM (inactive) | 66.1 µM (inactive) | 30.6 µM (inactive) | 14.6 µM (inactive) | 34.1 µM (inactive) | > 10 µM (inactive)
7 | CCOC(=O)C1(Cc2ccc3ccccc3c2)CCCCC(=O)N1 (configuration not stated) | 28.8 µM |  |  | 44.6 µM (inactive) | 23.9 µM (inactive) | 39.1 µM (inactive) | 49.8 µM (inactive) | 25.7 µM (inactive) | 55.5 µM (inactive) | 44.5 µM (inactive) | 36.5 µM (inactive) | 76 µM (inactive) |  | 0.286 µM (active) |  | 57 µM (inactive) | 54.8 µM (inactive) | 4.55 µM (inactive) | 7.35 µM (inactive) | 12.1 µM (inactive)
8 | CC1=C2[C@@H](c3ccccc3)C3C=CC2(C=C3C(F)(F)F)N(C(=O)NC2CCCCC2)C1=O (some centres not stated) | 81.3 µM |  | 32.4 µM (inactive) | 68.1 µM (inactive) | 51.5 µM (inactive) | 67.5 µM (inactive) | 91 µM (inactive) | > 100 µM (inactive) | > 100 µM (inactive) | > 100 µM (inactive) | > 100 µM (inactive) | > 100 µM (inactive) | 43.5 µM (inactive) | > 100 µM (inactive) | 72.6 µM (inactive) | > 100 µM (inactive) | 69 µM (inactive) | 36.6 µM (inactive) | 16.2 µM (inactive) | 14.8 µM (inactive)
9 | Cc1ccc(/N=N/c2c(O)c(C(=O)Nc3ccccc3)cc3ccccc23)c([N+](=O)[O-])c1 | > 100 µM | > 100 µM (inactive) | > 100 µM (inactive) | > 100 µM (inactive) | > 100 µM (inactive) | > 100 µM (inactive) | > 100 µM (inactive) |  | > 100 µM (inactive) | > 100 µM (inactive) | > 100 µM (inactive) | > 100 µM (inactive) | > 100 µM (inactive) | > 100 µM (inactive) | > 100 µM (inactive) | > 100 µM (inactive) | > 100 µM (inactive) | > 100 µM (inactive) | > 100 µM (inactive) | 
10 | COc1cccc(Nc2nc(-c3cccs3)nc3ccc(Br)cc23)c1 | > 100 µM | > 100 µM (inactive) | 50.5 µM (inactive) | 20 µM (inactive) | > 100 µM (inactive) | 76.4 µM (inactive) | 41.8 µM (inactive) | 25.6 µM (inactive) | 39.2 µM (inactive) | > 100 µM (inactive) | 25.5 µM (inactive) | 70 µM (inactive) | 55.5 µM (inactive) |  | 74 µM (inactive) | > 100 µM (inactive) | > 100 µM (inactive) | > 100 µM (inactive) |  | > 100 µM (inactive)
11 | O=P(O)(O)CN1CCN(CP(=O)(O)O)CCN(CP(=O)(O)O)CCN(CP(=O)(O)O)CC1 | 27.8 µM | 90.4 µM (inactive) | 36.4 µM (inactive) | > 100 µM (inactive) | > 100 µM (inactive) | 58.5 µM (inactive) | > 100 µM (inactive) | 29 µM (inactive) | 77.6 µM (inactive) | > 100 µM (inactive) | > 100 µM (inactive) |  | > 10 µM (inactive) | > 100 µM (inactive) | 41.8 µM (inactive) | > 100 µM (inactive) | > 100 µM (inactive) | 31.8 µM (inactive) | 41.3 µM (inactive) | 25.4 µM (inactive)
12 | Cc1ccc(-c2c(C#N)c(N)nc3c2CCS(=O)(=O)c2ccccc2-3)cc1 | > 100 µM | > 100 µM (inactive) | > 100 µM (inactive) |  | 90.8 µM (inactive) | > 100 µM (inactive) | 83.4 µM (inactive) | > 100 µM (inactive) | 41 µM (inactive) | 81.8 µM (inactive) | 50.7 µM (inactive) |  | 66.7 µM (inactive) | 20.6 µM (inactive) | > 100 µM (inactive) | 34.1 µM (inactive) |  | > 100 µM (inactive) |  | 
13 | N/C(S)=N/N=C/c1ccc(O)cn1 | 9.08 µM |  | 10.9 µM (inactive) | 4.59 µM (inactive) | 10.6 µM (inactive) | 47.6 µM (inactive) | 4.3 µM (inactive) | 18.5 µM (inactive) | 3.51 µM (inactive) | 5.35 µM (inactive) | 12.9 µM (inactive) |  | 5.65 µM (inactive) | 9.06 µM (inactive) | 11.1 µM (inactive) | 21.3 µM (inactive) | 14.5 µM (inactive) | 4.99 µM (inactive) |  | 4.12 µM (inactive)
14 | Cn1c(=O)c2c(nc(Cc3ccccc3)n2CC(=O)O)n(C)c1=O | > 100 µM | > 100 µM (inactive) | > 100 µM (inactive) | > 100 µM (inactive) | > 100 µM (inactive) | > 100 µM (inactive) | > 100 µM (inactive) | > 100 µM (inactive) | > 100 µM (inactive) | > 100 µM (inactive) | > 100 µM (inactive) |  | > 100 µM (inactive) | > 100 µM (inactive) | > 100 µM (inactive) | > 100 µM (inactive) | > 100 µM (inactive) |  | > 100 µM (inactive) | 
15 | CC(=O)N1OC(C)CC1Nc1ccc(Br)cc1 (configuration not stated) | > 100 µM |  | 4.03 µM (inactive) | 0.366 µM (active) | 0.0955 µM (active) | 9.12 µM (inactive) | > 100 µM (inactive) | 8.04 µM (inactive) | > 100 µM (inactive) | 20.8 µM (inactive) | > 100 µM (inactive) | > 100 µM (inactive) | 6.31 µM (inactive) |  | 1.44 µM (inactive) | > 100 µM (inactive) | > 100 µM (inactive) | 0.345 µM (active) | 0.971 µM (active) | 1.95 µM (inactive)
16 | CCOC(=O)C(=O)Nc1ccccc1CC |  | > 100 µM (inactive) | > 100 µM (inactive) | > 100 µM (inactive) | > 100 µM (inactive) | > 100 µM (inactive) | > 100 µM (inactive) | > 100 µM (inactive) | > 100 µM (inactive) | > 100 µM (inactive) | > 100 µM (inactive) | > 100 µM (inactive) | > 100 µM (inactive) |  | > 100 µM (inactive) | > 100 µM (inactive) | > 100 µM (inactive) | > 100 µM (inactive) | > 100 µM (inactive) | > 100 µM (inactive)
